Format in all cases: physicochemical
A short description of data set [1]: Fluorescence/absorption spectrum of probe with TMPyP4 under light irradiation (photosensitised singlet oxygen). The note with it: for increase of fluorescence intensity: 50 μM Si-DMA, 5 μM TMPyP4, 50-minute irradiation 510-550 nm, 0.07 W/cm2. How it is done:
(§1) Further, in the in vitro measurement, unless otherwise specified, all bulk spectrum measurements were performed in a phosphate buffered saline (PBS) having a pH of 7.5 without Ca and Mg or spectral grade methanol. The absorption spectrum and fluorescence spectrum in the ground state were measured using the Shimadzu UV-3100 and Horiba FluoroMax-4, respectively. The bulk irradiation was performed using a xenon light source (LAX-C100, Asahi Spectra Co., Ltd.) and a wavelength filter (BA510-550, Olympus Corporation).
The concentration of Si-DMA was 50 μM, and the concentration of TMPyP4 was 5 μM. The light irradiation was performed using a 510- to 550-nm wavelength ray at an intensity of 0.07 W/cm^2 under magnetic stirring so as to generate singlet oxygen.
In FIGS. 1a) and 1c), the black arrows denote changes in absorption by peroxidation (solid line) of the anthracene structure and disaggregation of hydrogen aggregate (broken line).
Subsequently, Si-DMA was reacted with singlet oxygen, thereby forming Si-DMEP; as a result, photoinduced electron transfer was inhibited, thereby increasing the fluorescence intensity (Φfl=0.17). In methanol, the fluorescence intensity increased about 18 times (in methanol), and about 22 times (in PBS) (FIGS. 1b) and 1d); red), and a loss of the anthracene structure was observed (FIG. 1a); black arrow).

A short description of data set [2]: Fluorescence quantum yield in various solvents in the absence of singlet oxygen. The protocol:
as §1
As is clear from the above, fluorescence was hardly observed in the absence of singlet oxygen, (Φfl=0.01; in methanol), and the excitation of silicon-rhodamine was cancelled due to photoinduced electron transfer caused by the anthracene structure. The fluorescence in the absence of singlet oxygen also depended on the type of solvent. The fluorescence intensity decreases when a polar solvent is used, thereby inhibiting erroneous signals.

Data set [3] can be described thus: Fluorescence change after singlet oxygen generated chemically by NaOCl and H2O2. The note with it: for fluorescence depending on concentration of singlet oxygen: NaClO and H2O2, DMSO:methanol:tris buffer 1:49:50, 5 μM. The protocol: Further, singlet oxygen was introduced into Si-DMA using a chemical catalyst. More specifically, singlet oxygen was introduced using 10 mM NaOCl and 10 mM H2O2. In this case as well, a spectral change similar to that in FIG. 1 was observed. […] The black arrow in FIG. 4a) and the red arrow in FIG. 4b) respectively show a loss of the anthracene structure, and an increase in the fluorescence of Si-DMA. The fluorescence increased about 10 times by 10-minute incubation using NaOCl and H2O2. By introducing a greater amount of singlet oxygen, more Si-DMA is expected to change into Si-DMEP.
The measurement was performed by generating singlet oxygen using NaClO and H2O2 in a solution containing DMSO:methanol:tris buffer agent=1:49:50 (Si-DMA concentration=5 μM).

Data set [4] can be described thus: Selectivity test against various reactive oxygen species. The note with it: 5 μM in methanol:PBS pH 7.4 1:1, 10 minutes in dark. The protocol:
A test was performed to confirm whether Si-DMA of Example 1 causes no self-oxidation of dye and is selectively responsive to singlet oxygen.
However, formation of aggregates decreases the effective concentration of the dye, thereby decreasing the reaction speed of Si-DMA. Therefore, a 5-μM Si-DMA solution was first prepared using a mixed solvent containing methanol and a pH 7.4 PBS buffer solution mixed at 1:1. In this solution, Si-DMA was present as a monomer. Subsequently, 10-mM solutions of various reactive oxygen species (ROS)(^1O2, O2.^−, H2O2, HOCl, ROO., and .OH) were prepared by adding the following additives to the 5-μM Si-DMA solution obtained above.
5. ROO.: 10 mM 2,2-azobis(2-amidinopropane)dihydrochloride
Under intense magnetic stirring, each Si-DMA solution containing reactive oxygen species (ROS) was stored for 10 minutes in a dark room. […]

As for `Cc1c2ccccc2c(C)c2cc(C3=C4C=CC(=[N+](C)C)C=C4[Si](C)(C)c4cc(N(C)C)ccc43)ccc12` [Si-DMA], the “stability (color fading) under light irradiation” value in data set [1] (after 900 seconds) is given as “color fading was not observed”. Further, the “increase of fluorescence intensity” value in data set [1] (in PBS) is given as “about 22 times”; in data set [1] (in methanol), “about 18 times”. The “change of fluorescence on light irradiation” value in data set [1] (in the absence of TMPyP4) is given as “did not increase”. Moreover, the “Φfl (fluorescence quantum yield)” value in data set [2] (in DMSO) is listed as 0.008; in data set [2] (in acetone) it was 0.010; in data set [2] (in benzene), 0.034; in data set [2] (in chloroform), 0.010; in data set [2] (in methanol), 0.01; in data set [2] (in toluene), 0.030. The increase of fluorescence result in data set [3] (10 mM NaOCl and 10 mM H2O2, 10-minute incubation) is recorded as “about 10 times”. Further, the “fluorescence depending on concentration of singlet oxygen” value in data set [3] (aggregate) and in data set [3] (monomer) was “increase in fluorescence in proportion to the concentration of singlet oxygen” each time. Also, the “fluorescence intensity in the presence of reactive oxygen species” value in data set [4] (other reactive oxygen species (O2.-, H2O2, HOCl, ROO., .OH)) was “no increase in fluorescence was observed”; in data set [4] (singlet oxygen (10 mM NaOCl and 10 mM H2O2)), “significantly increased”.
